From patent US10519099B2, “Cystobactamides” (priority 2014, dated 2019)
Converted amounts (≈) assume the structure as drawn. Where two headings read alike, the source gives them in different places.

Tests used:
[1] = system: Escherichia coli WT-3.2 [gyrA(D87G)]; experiment: MIC microdilution, E. coli WT-3.2 [gyrA(D87G)]; assay type: cell-based; conditions: read-out: MIC Escherichia coli WT-3.2 [gyrA(D87G)]
Procedure: (§1) Indicator strains used in susceptibility assays were either part of our strain collection or purchased from the German Collection of Microorgansims and Cell Cultures (DSMZ) or from the American Type Culture Collection (ATCC). E. coli strain WT and corresponding E. coli mutants were kindly provided by Prof. Dr. P. Heisig, Pharmaceutical Biology and Microbiology, University of Hamburg. E. coli strains JW0401-1 (WT) and Δtsx were obtained from the CGSC collection.
(§2) MIC values were determined in standardized microdilution assays. Overnight cultures were diluted in the appropriate growth medium to achieve an inoculum of 10^4-10^6 cfu/mL. Yeasts were grown in Myc medium (1% phytone peptone, 1% glucose, 50 mM HEPES, pH 7.0), S. pneumonia and Enterococcus spp. in tryptic soy broth (TSB: 1.7% peptone casein, 0.3% peptone soymeal, 0.25% glucose, 0.5% NaCl, 0.25% K2HPO4; pH 7.3); M. smegmatis in Middlebrook 7H9 medium supplemented with 10% Middlebrook ADC enrichment and 2 ml/I glycerol). All other listed bacteria were grown in Müller-Hinton broth (0.2% beef infusion solids, 1.75% casein hydrolysate, 0.15% starch, pH 7.4). […] Growth inhibition was assessed by visual inspection and the MIC was defined as the lowest concentration of compound that inhibited visible growth.

[2] = system: Escherichia coli ATCC35218; experiment: MIC microdilution, E. coli ATCC35218; assay type: cell-based
Procedure: as §1, §2

[3] = system: Escherichia coli DSM-12242 (NAL^R); experiment: MIC microdilution, E. coli DSM-12242 (NAL^R); assay type: cell-based; conditions: DSM12242, read-out: MIC Escherichia coli DSM-12242 (NAL^R)
Procedure: as §1, §2

[4] = system: Pseudomonas aeruginosa DSM-46316 (ESBL); experiment: MIC microdilution, P. aeruginosa DSM-46316 (ESBL); assay type: cell-based; conditions: Pseudomonas aeruginosa
Procedure: as §1
(§3) MIC values were determined in standardized microdilution assays. Overnight cultures were diluted in the appropriate growth medium to achieve an inoculum of 10^4-10^6 cfu/mL. Yeasts were grown in Myc medium (1% phytone peptone, 1% glucose, 50 mM HEPES, pH 7.0), S. pneumonia and Enterococcus spp. in tryptic soy broth (TSB: 1.7% peptone casein, 0.3% peptone soymeal, 0.25% glucose, 0.5% NaCl, 0.25% K2HPO4; pH 7.3); M. smegmatis in Middlebrook 7H9 medium supplemented with 10% Middlebrook ADC enrichment and 2 ml/I glycerol). All other listed bacteria were grown in Müller-Hinton broth (0.2% beef infusion solids, 1.75% casein hydrolysate, 0.15% starch, pH 7.4). Cystobactamides and reference drugs were added directly to the cultures in sterile 96-well plates as duplicates and serial dilutions were prepared. Microorganisms were grown on a microplate shaker (750 rpm, 30-37° C., 18-48 h), except S. pneumonia, which was grown at non-shaking conditions (37° C., 5% CO2, 18 h). Growth inhibition was assessed by visual inspection and the MIC was defined as the lowest concentration of compound that inhibited visible growth.

[5] = system: Enterococcus faecalis ATCC29212; experiment: MIC microdilution, Enterococcus faecalis ATCC29212; assay type: cell-based
Procedure: as §1, §2

[6] = system: E. coli WT-III [marRΔ74bp]; experiment: MIC microdilution, E. coli WT-III [marRΔ74bp]; assay type: cell-based, Escherichia coli; conditions: for MIC E. coli WT-III [marRΔ74bp]: Gram-negative set; for MIC Escherichia coli WTIII (marRΔ74bp): larger panel
Procedure: as §1, §3

E. coli DSM-1116 = experiment: MIC microdilution, E. coli DSM-1116; assay type: cell-based, Escherichia coli; conditions: Escherichia coli, DSM1116
Procedure: as §1, §3

[7] = system: Enterococcus faecium DSM-20477; experiment: MIC microdilution, Enterococcus faecium DSM-20477; assay type: cell-based; conditions: Enterococcus faecium
Procedure: as §1, §3

[8] = system: Burkholderia cenocepacia DSM-16553; experiment: MIC microdilution, Burkholderia cenocepacia DSM-16553; assay type: cell-based
Procedure: as §1, §2

[9] = system: Pseudomonas aeruginosa DSM-24599; experiment: MIC microdilution, P. aeruginosa DSM-24599; assay type: cell-based; conditions: Pseudomonas aeruginosa
Procedure: as §1, §3

[10] = system: Micrococcus luteus DSM-1790; experiment: MIC microdilution, Micrococcus luteus DSM-1790; assay type: cell-based
Procedure: as §1, §2

Pichia anomala DSM-6766 = experiment: MIC microdilution, Pichia anomala DSM-6766; assay type: cell-based; conditions: Hansenula anomala
Procedure: as §1, §2

[11] = system: Staphylococcus epidermidis DSM-28765; experiment: MIC microdilution, Staphylococcus epidermidis DSM-28765; assay type: cell-based; conditions: Staphylococcus epidermidis
Procedure: as §1, §3

[12] = system: Serratia marcescens DSM-30121; experiment: MIC microdilution, Serratia marcescens DSM-30121; assay type: cell-based; conditions: Serratia marcescens
Procedure: as §1, §3

[13] = system: P. aeruginosa DSM-24600 (ESBL); experiment: MIC microdilution, P. aeruginosa DSM-24600 (ESBL); assay type: cell-based, Pseudomonas aeruginosa; conditions: Pseudomonas aeruginosa, DSM24600
Procedure: as §1, §3

[14] = system: Klebsiella pneumoniae DSM-30104; experiment: MIC microdilution, Klebsiella pneumoniae DSM-30104; assay type: cell-based
Procedure: as §1, §2

[15] = system: Streptococcus pneumoniae DSM-20566; experiment: MIC microdilution, Streptococcus pneumoniae DSM-20566; assay type: cell-based
Procedure: as §1, §2

[16] = system: Candida albicans DSM-1665; experiment: MIC microdilution, Candida albicans DSM-1665; assay type: cell-based
Procedure: as §1, §2

Bacillus subtilis DSM-10 = experiment: MIC microdilution, Bacillus subtilis DSM-10; assay type: cell-based
Procedure: as §1, §2

[17] = system: Pseudomonas aeruginosa ATCC27853; experiment: MIC microdilution, P. aeruginosa ATCC27853; assay type: cell-based; conditions: Pseudomonas aeruginosa
Procedure: as §1, §3

[18] = system: Proteus vulgaris DSM-2140; experiment: MIC microdilution, P. vulgaris DSM-2140; assay type: cell-based; conditions: Proteus vulgaris, DSM2140
Procedure: as §1, §3

[19] = system: Escherichia coli MI [gyrA(S83L)]; experiment: MIC microdilution, E. coli MI [gyrA(S83L)]; assay type: cell-based; conditions: read-out: MIC Escherichia coli MI [gyrA(S83L)]
Procedure: as §1, §2

[20] = system: Mycobacterium smegmatis ATCC700084; experiment: MIC microdilution, Mycobacterium smegmatis ATCC700084; assay type: cell-based; conditions: Mycolicibacterium smegmatis
Procedure: as §1, §2

[21] = system: Escherichia coli MI-4 [gyrA(S83L), parC(S80I)]; experiment: MIC microdilution, E. coli MI-4 [gyrA(S83L), parC(S80I)]; assay type: cell-based; conditions: read-out: MIC Escherichia coli MI-4 [gyrA(S83L), parC(S80I)]
Procedure: as §1, §2

[22] = Gram-negative set, read-out: MIC E. coli DSM-1116
[23] = larger panel, read-out: MIC Escherichia coli DSM-1116
[24] = Gram-negative set, read-out: MIC P. aeruginosa DSM-24600 (ESBL)
[25] = larger panel, read-out: MIC Pseudomonas aeruginosa DSM-24600 (ESBL)
[26] = Gram-negative set, read-out: MIC P. vulgaris DSM-2140
[27] = larger panel, read-out: MIC Proteus vulgaris DSM-2140

COC(C(N)=O)C(NC(=O)c1ccc(NC(=O)c2ccc([N+](=O)[O-])cc2)cc1)C(=O)Nc1ccc(C(=O)Nc2ccc(C(=O)Nc3ccc(C(=O)O)cc3OC(C)C)c(O)c2OC(C)C)cc1 (centres unmarked) [Cys 919-2]
MIC [1]: 4 µg/mL (≈ 4.35 µM) | MIC ([2]; ATCC35218, read-out: MIC Escherichia coli ATCC35218): 1 µg/mL (≈ 1.09 µM) | MIC [3]: 1 to 2 µg/mL (≈ 1.09 to 2.17 µM) | MIC ([4]; DSM46316, read-out: MIC Pseudomonas aeruginosa DSM-46316 (ESBL)): > 64 µg/mL | MIC ([5]; ATCC29212, read-out: MIC Enterococcus faecalis ATCC29212): 0.1 µg/mL (≈ 0.109 µM) | MIC E. coli WT-III [marRΔ74bp] [6]: >64 µg/mL | MIC Escherichia coli WTIII (marRΔ74bp) [6]: 64 µg/mL (≈ 69.6 µM) | MIC (E. coli DSM-1116; [22]): 0.5 µg/mL (≈ 0.544 µM) | MIC (E. coli DSM-1116; [23]): 1 µg/mL (≈ 1.09 µM) | MIC ([7]; DSM20477, read-out: MIC Enterococcus faecium DSM-20477): 0.25 µg/mL (≈ 0.272 µM) | MIC ([8]; DSM16553, read-out: MIC Burkholderia cenocepacia DSM-16553): > 64 µg/mL | MIC ([9]; DSM24599, read-out: MIC Pseudomonas aeruginosa DSM-24599): > 64 µg/mL | MIC ([10]; DSM1790, read-out: MIC Micrococcus luteus DSM-1790): 0.1 to 0.2 µg/mL (≈ 0.109 to 0.217 µM) | MIC (Pichia anomala DSM-6766; DSM6766, read-out: MIC Pichia anomala DSM-6766): > 64 µg/mL | MIC ([11]; DSM28765, read-out: MIC Staphylococcus epidermidis DSM-28765): 0.25 µg/mL (≈ 0.272 µM) | MIC ([12]; DSM30121, read-out: MIC Serratia marcescens DSM-30121): > 64 µg/mL | MIC [13, 24]: 64 µg/mL (≈ 69.6 µM) | MIC [13, 25]: 64 µg/mL (≈ 69.6 µM) | MIC ([14]; DSM30104, read-out: MIC Klebsiella pneumoniae DSM-30104): > 64 µg/mL | MIC ([15]; DSM20566, read-out: MIC Streptococcus pneumoniae DSM-20566): 0.1 µg/mL (≈ 0.109 µM) | MIC ([16]; DSM1665, read-out: MIC Candida albicans DSM-1665): > 64 µg/mL | MIC (Bacillus subtilis DSM-10; DSM10, read-out: MIC Bacillus subtilis DSM-10): 0.1 µg/mL (≈ 0.109 µM) | MIC ([17]; ATCC27853, read-out: MIC Pseudomonas aeruginosa ATCC27853): > 64 µg/mL | MIC [18, 26]: 4 µg/mL (≈ 4.35 µM) | MIC [18, 27]: 4 µg/mL (≈ 4.35 µM) | MIC [19]: 4 µg/mL (≈ 4.35 µM) | MIC ([20]; ATCC700084, read-out: MIC Mycobacterium smegmatis ATCC700084): > 64 µg/mL | MIC [21]: 2 to 4 µg/mL (≈ 2.17 to 4.35 µM)

O=C(O)c1cn(C2CC2)c2cc(N3CCNCC3)c(F)cc2c1=O [CP, Ciprofloxacin, reference compound]
MIC [1]: 0.4 µg/mL (≈ 1.21 µM) | MIC ([2]; ATCC35218, larger panel, read-out: MIC Escherichia coli ATCC35218): 0.013 µg/mL (≈ 0.0392 µM) | MIC [3]: 0.05 µg/mL (≈ 0.151 µM) | MIC ([4]; DSM46316, larger panel, read-out: MIC Pseudomonas aeruginosa DSM-46316 (ESBL)): 0.1 µg/mL (≈ 0.302 µM) | MIC ([5]; ATCC29212, larger panel, read-out: MIC Enterococcus faecalis ATCC29212): 0.8 µg/mL (≈ 2.41 µM) | MIC E. coli WT-III [marRΔ74bp] [6]: 0.1 µg/mL (≈ 0.302 µM) | MIC Escherichia coli WTIII (marRΔ74bp) [6]: 0.1 µg/mL (≈ 0.302 µM) | MIC (E. coli DSM-1116; [22]): 0.01 µg/mL (≈ 0.0302 µM) | MIC (E. coli DSM-1116; [23]): 0.013 µg/mL (≈ 0.0392 µM) | MIC ([7]; DSM20477, larger panel, read-out: MIC Enterococcus faecium DSM-20477): > 6.4 µg/mL | MIC ([8]; DSM16553, larger panel, read-out: MIC Burkholderia cenocepacia DSM-16553): > 6.4 µg/mL | MIC ([9]; DSM24599, larger panel, read-out: MIC Pseudomonas aeruginosa DSM-24599): > 6.4 µg/mL | MIC ([10]; DSM1790, larger panel, read-out: MIC Micrococcus luteus DSM-1790): 0.8 to 1.6 µg/mL (≈ 2.41 to 4.83 µM) | MIC (Pichia anomala DSM-6766; DSM6766, larger panel, read-out: MIC Pichia anomala DSM-6766): > 6.4 µg/mL | MIC ([11]; DSM28765, larger panel, read-out: MIC Staphylococcus epidermidis DSM-28765): 0.2 µg/mL (≈ 0.604 µM) | MIC ([12]; DSM30121, larger panel, read-out: MIC Serratia marcescens DSM-30121): 0.1 µg/mL (≈ 0.302 µM) | MIC [13, 24]: 3.2 µg/mL (≈ 9.66 µM) | MIC [13, 25]: 3.2 µg/mL (≈ 9.66 µM) | MIC ([14]; DSM30104, larger panel, read-out: MIC Klebsiella pneumoniae DSM-30104): 0.025 µg/mL (≈ 0.0754 µM) | MIC ([15]; DSM20566, larger panel, read-out: MIC Streptococcus pneumoniae DSM-20566): 0.8 to 1.6 µg/mL (≈ 2.41 to 4.83 µM) | MIC ([16]; DSM1665, larger panel, read-out: MIC Candida albicans DSM-1665): > 6.4 µg/mL | MIC (Bacillus subtilis DSM-10; DSM10, larger panel, read-out: MIC Bacillus subtilis DSM-10): 0.1 µg/mL (≈ 0.302 µM) | MIC ([17]; ATCC27853, larger panel, read-out: MIC Pseudomonas aeruginosa ATCC27853): 0.1 to 0.2 µg/mL (≈ 0.302 to 0.604 µM) | MIC [18, 26]: 0.01 µg/mL (≈ 0.0302 µM) | MIC [18, 27]: 0.01 µg/mL (≈ 0.0302 µM) | MIC [19]: 0.4 to 0.8 µg/mL (≈ 1.21 to 2.41 µM) | MIC ([20]; ATCC700084, larger panel, read-out: MIC Mycobacterium smegmatis ATCC700084): 0.2 to 0.4 µg/mL (≈ 0.604 to 1.21 µM) | MIC [21]: 0.8 µg/mL (≈ 2.41 µM)
